Some results are limits rather than exact numbers.

Tested on in one test: not listed separately
Nature of the test: Cytotoxicity against human MDA-MB-435 cells assessed as growth inhibition after 48 hrs by MTT assay. It is filed as functional. The following applies: MDA-MB-435, 48 h. (Tetrazolium assays rely on reduction of a dye to a coloured formazan, in cell work by metabolically active cells.)
With `C[C@@H]1NC(c2ccc(Br)cc2)=Nc2nc3ccccn3c2[C@H]1O`, the concentration for 50% growth inhibition (GI50) is greater than 10 µM.

As to `CC(C)[C@@H]1NC(c2ccc(Br)cc2)=Nc2nc3ccccn3c2C1=O`, the GI50 was 50 µM.

As for `C[C@H]1NC(c2ccc(Br)cc2)=Nc2nc3ccccn3c2C1=O`, the GI50 is greater than 100 µM. Same read-out and setting: under `CNC(=O)c1ccc(C2=Nc3nc4ccccn4c3C(=O)[C@H](C)N2)cc1` stands greater than 10 µM; under `C[C@H]1C(=O)c2c(nc3ccccn23)N=C(c2ccc(Br)cc2)N1C`, greater than 10 µM. On the same count and under the same terms, the value for `C[C@@H]1NC(c2ccc(C(F)(F)F)cc2)=Nc2nc3ccccn3c2C1=O` was greater than 10 µM; that for `C[C@@H]1NC(c2cccc(Cl)c2)=Nc2nc3ccccn3c2C1=O` was 10 µM; that for `C[C@@H]1NC(c2cccc3ccccc23)=Nc2nc3ccccn3c2C1=O` was 1.4 µM. Still for that read-out and setting: under `NCCCC[C@@H]1NC(c2ccc(Br)cc2)=Nc2nc3ccccn3c2C1=O` stands greater than 10 µM; under `COc1ccc(C2=Nc3nc4ccccn4c3C(=O)[C@H](C)N2)cc1OC`, greater than 10 µM. With `CCOC(=O)c1ccc(C2=Nc3nc4ccccn4c3C(=O)[C@H](C)N2)cc1`, the GI50 was greater than 10 µM. On the same count and under the same terms, the value for `O=C1c2c(nc3ccccn23)N=C(c2ccc(Br)cc2)N[C@H]1CO` was 0.95 to 1 µM; that for `C[C@@H]1NC(c2cccc(Br)c2)=Nc2nc3ccccn3c2C1=O` was greater than 10 µM. In the case of `C[C@@H]1NC(c2ccc(I)cc2)=Nc2nc3ccccn3c2C1=O`, the 50% growth inhibitory concentration (GI50) turned out to be 1.35 µM. For `CC(=O)Nc1ccc(C2=Nc3nc4ccccn4c3C(=O)[C@H](C)N2)cc1`, the GI50 was in the range of 10 to 100 µM.

`C[C@@H]1NC(c2ccccc2Br)=Nc2nc3ccccn3c2C1=O`: the 50% growth inhibitory concentration (GI50) was determined as 8.35 µM. The same measure, in the same setting: under `Cc1ccccc1C1=Nc2nc3ccccn3c2C(=O)[C@H](C)N1` stands greater than 10 µM; under `O=C(NCCCC[C@@H]1NC(c2ccc(Br)cc2)=Nc2nc3ccccn3c2C1=O)OCc1ccccc1`, greater than 10 µM; under `C[C@@H]1NC(c2ccc(F)cc2)=Nc2nc3ccccn3c2C1=O`, greater than 10 µM. Same read-out and setting: under `C[C@@H]1NC(c2ccc(C#N)cc2)=Nc2nc3ccccn3c2C1=O` stands greater than 10 µM.

Regarding `CC[C@@H]1NC(c2ccc(Br)cc2)=Nc2nc3ccccn3c2C1=O`, the GI50 was 1 µM. On the same count and under the same terms, under `C[C@@H]1NC(c2ccc(Cl)c(C(F)(F)F)c2)=Nc2nc3ccccn3c2C1=O` stands greater than 10 µM. As for `C[C@@H]1NC(c2ccccc2Cl)=Nc2nc3ccccn3c2C1=O`, the concentration for 50% growth inhibition (GI50) turned out to be 6.5 µM. Take `C[C@@H]1NC(c2ccc(-c3ccccc3)cc2)=Nc2nc3ccccn3c2C1=O`: the 50% growth inhibitory concentration (GI50) is 40 µM. On the same count and under the same terms, under `O=C1CNC(c2ccc(Br)cc2)=Nc2nc3ccccn3c21` stands greater than 10 µM.

The target of the next test is Mitogen-activated protein kinase kinase kinase kinase 4 (Homo sapiens, UniProt O95819). The test can be described thus: Inhibition of recombinant human HGK using Ulight-FLGFTYVAP as substrate after 90 mins by LANCE assay.
Sequence of Mitogen-activated protein kinase kinase kinase kinase 4 (O95819 whole entry): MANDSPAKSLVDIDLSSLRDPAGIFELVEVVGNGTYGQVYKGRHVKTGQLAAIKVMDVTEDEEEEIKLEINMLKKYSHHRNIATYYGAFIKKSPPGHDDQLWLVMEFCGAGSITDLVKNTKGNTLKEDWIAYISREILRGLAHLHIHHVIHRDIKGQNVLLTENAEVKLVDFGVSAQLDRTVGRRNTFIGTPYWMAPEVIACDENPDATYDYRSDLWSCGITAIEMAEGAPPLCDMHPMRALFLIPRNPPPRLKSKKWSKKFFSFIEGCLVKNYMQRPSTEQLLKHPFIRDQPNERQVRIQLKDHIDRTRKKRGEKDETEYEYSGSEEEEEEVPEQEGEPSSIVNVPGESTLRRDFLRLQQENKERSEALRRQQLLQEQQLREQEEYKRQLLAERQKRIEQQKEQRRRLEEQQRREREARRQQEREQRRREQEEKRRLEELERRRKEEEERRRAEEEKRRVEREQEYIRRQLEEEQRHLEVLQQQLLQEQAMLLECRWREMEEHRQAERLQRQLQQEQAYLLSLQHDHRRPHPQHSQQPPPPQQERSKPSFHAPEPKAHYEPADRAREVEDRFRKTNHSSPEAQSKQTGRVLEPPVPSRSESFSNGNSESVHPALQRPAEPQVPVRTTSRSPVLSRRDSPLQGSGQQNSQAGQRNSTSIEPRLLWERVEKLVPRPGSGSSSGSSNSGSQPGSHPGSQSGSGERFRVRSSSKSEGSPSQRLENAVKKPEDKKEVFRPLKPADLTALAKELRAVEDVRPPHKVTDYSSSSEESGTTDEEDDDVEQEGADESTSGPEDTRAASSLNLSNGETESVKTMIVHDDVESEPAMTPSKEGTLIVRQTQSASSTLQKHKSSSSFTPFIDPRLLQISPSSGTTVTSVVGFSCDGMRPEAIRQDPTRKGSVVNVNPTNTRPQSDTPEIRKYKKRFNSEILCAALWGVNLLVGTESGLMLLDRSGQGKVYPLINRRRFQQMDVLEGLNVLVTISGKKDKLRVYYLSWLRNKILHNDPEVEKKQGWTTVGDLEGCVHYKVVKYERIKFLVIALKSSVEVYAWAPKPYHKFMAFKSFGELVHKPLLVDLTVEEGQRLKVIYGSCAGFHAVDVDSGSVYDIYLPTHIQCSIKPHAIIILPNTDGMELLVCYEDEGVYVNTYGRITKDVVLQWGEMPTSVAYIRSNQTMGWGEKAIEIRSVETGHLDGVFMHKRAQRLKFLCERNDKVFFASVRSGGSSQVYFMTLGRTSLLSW
Settings: not given
On the technique in general: TR-FRET usually uses a lanthanide donor and a delayed reading to cut background.
Regarding `CC(C)[C@@H]1NC(c2ccc(Br)cc2)=Nc2nc3ccccn3c2C1=O`, the IC50 came to 44 µM. Take `C[C@H]1NC(c2ccc(Br)cc2)=Nc2nc3ccccn3c2C1=O`: the IC50 is greater than 100 µM.

In the case of `CC(=O)Nc1ccc(C2=Nc3nc4ccccn4c3C(=O)[C@H](C)N2)cc1`, the IC50 was greater than 100 µM. On to `C[C@@H]1NC(c2ccc(-c3ccccc3)cc2)=Nc2nc3ccccn3c2C1=O`, for which the 50% inhibitory concentration (IC50) is greater than 100 µM.

Broadly, the GI50 is the concentration giving 50% growth inhibition. As a reminder, the IC50 is the concentration that inhibits the measured activity by half.
